Laboratory results as given in patent US20050130252A1, “Stabilized susceptibility tests of aerobic pathogens” (Wyeth Holdings Corporation, priority 2003, published 2005).
≈ marks a conversion by molar mass, not a printed value. Where two headings read alike, the source gives them in different places.

Legend:
Experiment in all cases: Broth microdilution MIC
P. aeruginosa ATCC 27853 = format: cell-based, Pseudomonas aeruginosa; settings: Pseudomonas aeruginosa, ATCC27853, read-out: Minimal Inhibitory Concentration, P. aeruginosa ATCC 27853
Method: (§1) The process for preparing susceptibility test medium are the following steps: • a. Preparing Mueller Hinton Broth II medium by adding 22 grams powdered media to 1.0 liter distilled water; • b. Autoclaving (121° C., 15 psi, 15 minutes) and cooling the medium; • c. Adding Oxyrase® up to about 10% final volume and keeping at 35-37° C. in an incubator for 30 minutes; • d. Adding about 50 μL to each well of a 96 well microtiter plate; • e. Weighing drug and adding broth to drug to bring up to about (standard 128 μg/ml); • f. Adding 50 μL of the drug to the first column of the titer plate; • g. Diluting by two-fold serial diluting across or down the plate. • h. Preparing a Prompt™ inoculum at 10^8 CFU/ml; • i. Diluting inoculum 1:100 in the broth at […] in 9.9 ml (1:100) is 10^6 colony forming units (CFU) forming the adjusted inoculum; • j. Adding 50 μL of the adjusted inoculum to the wells of the microtiter plate; • k. Incubating the plates at 35-37° C. for 18-22 hours; and • l. Reading, with the unaided eye, the MIC.
(§2) The in vitro activities of tigecycline and control antibiotics were determined by the broth microdilution method as recommended by the NCCLS. (National Committee for Clinical Laboratory Standards, 2003. Methods for Dilution Antimicrobial Susceptibility Tests for Bacteria That Grow Aerobically; Approved Standards: M7-A6, Sixth ed, vol. 23., National Committee for Clinical Laboratory Standards Wayne, Pa.) was used for the standard procedures. MBH with 5% lysed horse blood was used for testing S. pneumoniae and Haemophilus Test Medium was used for testing H. influenzae. Oxyrase® (Oxyrase Inc, Mansfield, Ohio) was used according to the manufacturer's instructions by adding 1 ml of Oxyrase® to 50 ml of media. Media age studies were performed by preparing MHB in multiple flasks, then storing the media under various conditions. MICs were usually performed in duplicate on each day of testing. Storage under anaerobic conditions was conducted in an anaerobic chamber (MACS MG 1000, Don Whitley Scientific LTD). The pH of the media was determined by pH meter (Corning 430). A comparison of the in vitro activity of tigecycline by agar and broth dilution methodolgies with and without Oxyrase® against clinical isolates is shown in Table 1.

S. aureus ATCC 25923 = format: cell-based, Staphylococcus aureus; settings: Staphylococcus aureus, ATCC25923, read-out: Minimal Inhibitory Concentration, S. aureus ATCC 25923
Method: as §1, §2

S. aureus ATCC 29213 = format: cell-based, Staphylococcus aureus; settings: Staphylococcus aureus
Method: as §1, §2

CN(C)c1cc(NC(=O)CNC(C)(C)C)c(O)c2c1C[C@H]1C[C@H]3[C@H](N(C)C)C(O)=C(C(N)=O)C(=O)[C@@]3(O)C(O)=C1C2=O [Tigecycline, tigecycline]
MIC (P. aeruginosa ATCC 27853; 2% Oxyrase): 8 mg/L (≈ 13.7 µM)
MIC (P. aeruginosa ATCC 27853; No Oxyrase): 16 mg/L (≈ 27.3 µM)
MIC (S. aureus ATCC 25923; 2% Oxyrase): 0.06 mg/L (≈ 0.102 µM)
MIC (S. aureus ATCC 25923; MHB II + 0.05% Sodium Pyruvate): 0.25 mg/L
MIC (S. aureus ATCC 25923; No Oxyrase): 0.25 mg/L (≈ 0.427 µM)
MIC (S. aureus ATCC 29213; ATCC29213, 0 h, S. aureus ATCC 29213, Day 0, Pre-prepared media, room temperature, N = 6): 0.25 mg/L (≈ 0.427 µM)
MIC (S. aureus ATCC 29213; ATCC29213, 0 h, S. aureus ATCC 29213, Day 0, media Fresh from Powder 2° C., N = 6): 0.12 mg/L (≈ 0.205 µM)
MIC (S. aureus ATCC 29213; ATCC29213, 0 h, S. aureus ATCC 29213, Day 0, media Fresh from Powder, room temperature, N = 6): 0.06 to 0.12 mg/L (≈ 0.102 to 0.205 µM)
MIC (S. aureus ATCC 29213; ATCC29213, 24 h, S. aureus ATCC 29213, Day 1, Pre-prepared media, room temperature, N = 6): 0.25 mg/L (≈ 0.427 µM)
MIC (S. aureus ATCC 29213; ATCC29213, 24 h, S. aureus ATCC 29213, Day 1, media Fresh from Powder 2° C., N = 6): 0.12 mg/L (≈ 0.205 µM)
MIC (S. aureus ATCC 29213; ATCC29213, 24 h, S. aureus ATCC 29213, Day 1, media Fresh from Powder, room temperature, N = 6): 0.12 mg/L (≈ 0.205 µM)
MIC (S. aureus ATCC 29213; ATCC29213, 168 h, S. aureus ATCC 29213, Day 7, Pre-prepared media, room temperature, N = 6): 0.25 mg/L (≈ 0.427 µM)
MIC (S. aureus ATCC 29213; ATCC29213, 168 h, S. aureus ATCC 29213, Day 7, media Fresh from Powder 2° C., N = 6): 0.12 mg/L (≈ 0.205 µM)
MIC (S. aureus ATCC 29213; ATCC29213, 168 h, S. aureus ATCC 29213, Day 7, media Fresh from Powder, room temperature, N = 6): 0.25 mg/L (≈ 0.427 µM)
MIC (S. aureus ATCC 29213; ATCC29213, 336 h, S. aureus ATCC 29213, Day 14, Pre-prepared media, room temperature, N = 6): 0.25 to 0.5 mg/L (≈ 0.427 to 0.854 µM)
MIC (S. aureus ATCC 29213; ATCC29213, 336 h, S. aureus ATCC 29213, Day 14, media Fresh from Powder 2° C., N = 6): 0.25 to 0.5 mg/L (≈ 0.427 to 0.854 µM)
MIC (S. aureus ATCC 29213; ATCC29213, 336 h, S. aureus ATCC 29213, Day 14, media Fresh from Powder, room temperature, N = 6): 0.25 to 0.5 mg/L (≈ 0.427 to 0.854 µM)
MIC (S. aureus ATCC 29213; ATCC29213, 336 h, read-out: Minimal Inhibitory Concentration, S. aureus ATCC 29213, media Aged Aerobic (2 weeks at RT under room air), N = 4): 0.25 to 0.5 mg/L (≈ 0.427 to 0.854 µM)
MIC (S. aureus ATCC 29213; ATCC29213, 504 h, S. aureus ATCC 29213, Day 21, Pre-prepared media, room temperature, N = 6): 0.5 mg/L (≈ 0.854 µM)
MIC (S. aureus ATCC 29213; ATCC29213, 504 h, S. aureus ATCC 29213, Day 21, media Fresh from Powder 2° C., N = 6): 0.25 to 0.5 mg/L (≈ 0.427 to 0.854 µM)
MIC (S. aureus ATCC 29213; ATCC29213, 504 h, S. aureus ATCC 29213, Day 21, media Fresh from Powder, room temperature, N = 6): 0.25 mg/L (≈ 0.427 µM)
MIC (S. aureus ATCC 29213; ATCC29213, 672 h, S. aureus ATCC 29213, Day 28, Pre-prepared media, room temperature, N = 6): 0.25 to 0.5 mg/L (≈ 0.427 to 0.854 µM)
MIC (S. aureus ATCC 29213; ATCC29213, 672 h, S. aureus ATCC 29213, Day 28, media Fresh from Powder 2° C., N = 6): 0.25 mg/L (≈ 0.427 µM)
MIC (S. aureus ATCC 29213; ATCC29213, 672 h, S. aureus ATCC 29213, Day 28, media Fresh from Powder, room temperature, N = 6): 0.25 mg/L (≈ 0.427 µM)
MIC (S. aureus ATCC 29213; ATCC29213, read-out: Minimal Inhibitory Concentration (modal value), S. aureus ATCC 29213, Aged Media + Oxyrase, N = 8): 0.25 mg/L
MIC (S. aureus ATCC 29213; ATCC29213, read-out: Minimal Inhibitory Concentration (modal value), S. aureus ATCC 29213, Aged media, N = 8): 0.5 mg/L (≈ 0.854 µM)
MIC (S. aureus ATCC 29213; ATCC29213, read-out: Minimal Inhibitory Concentration (modal value), S. aureus ATCC 29213, Fresh Media + Oxyrase, N = 8): 0.12 mg/L
MIC (S. aureus ATCC 29213; ATCC29213, read-out: Minimal Inhibitory Concentration (modal value), S. aureus ATCC 29213, Freshly Prepared Media, N = 8): 0.25 mg/L (≈ 0.427 µM)
MIC (S. aureus ATCC 29213; ATCC29213, read-out: Minimal Inhibitory Concentration, S. aureus ATCC 29213, Aged Media + Oxyrase, N = 8): 0.12 to 0.25 mg/L
MIC (S. aureus ATCC 29213; ATCC29213, read-out: Minimal Inhibitory Concentration, S. aureus ATCC 29213, Aged media, N = 8): 0.5 mg/L (≈ 0.854 µM)
MIC (S. aureus ATCC 29213; ATCC29213, read-out: Minimal Inhibitory Concentration, S. aureus ATCC 29213, Commercially Prepared media, N = 4): 0.25 mg/L (≈ 0.427 µM)
MIC (S. aureus ATCC 29213; ATCC29213, read-out: Minimal Inhibitory Concentration, S. aureus ATCC 29213, Fresh Media + Oxyrase, N = 8): 0.12 to 0.25 mg/L
MIC (S. aureus ATCC 29213; ATCC29213, read-out: Minimal Inhibitory Concentration, S. aureus ATCC 29213, Freshly Prepared Media, N = 8): 0.25 mg/L (≈ 0.427 µM)
MIC (S. aureus ATCC 29213; ATCC29213, read-out: Minimal Inhibitory Concentration, S. aureus ATCC 29213, Freshly Prepared media, N = 4): 0.06 to 0.12 mg/L (≈ 0.102 to 0.205 µM)
